From PubChem BioAssay AID1963875 (Molecular Pharmacology Branch, DTP, NCI, 2024)

Test system: KRAS-mutant PDC complex spheroid viability
Assay: Anticancer human tumor 186277-243-T-J2-PDC patient-derived colon adenocarcinoma cell line growth inhibition [KRAS2]
Conditions: for IC50: curve of first compound; for viability, T/C: stronger effect = lower value
Outline: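 KRAS-mutant tumor cells were grown as spheroids with HUVEC endothelial cells and human MSCs as stroma. Targeted agents were tested alone and with KRAS pathway inhibitors. Doses started at or near clinical Cmax, or 10 microM, descending half-log.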

[1] = second compound 0.0316 µM, first compound 0.000316 µM
[2] = second compound 0.0316 µM, first compound 0.001 µM
[3] = second compound 0.0316 µM, first compound 0.00316 µM
[4] = second compound 0.0316 µM, first compound 0.01 µM
[5] = second compound 0.0316 µM, first compound 0.0316 µM
[6] = second compound 0.1 µM, first compound 0.000316 µM
[7] = second compound 0.1 µM, first compound 0.001 µM
[8] = second compound 0.1 µM, first compound 0.00316 µM
[9] = second compound 0.1 µM, first compound 0.01 µM
[10] = second compound 0.1 µM, first compound 0.0316 µM
[11] = second compound 0.316 µM, first compound 0.000316 µM
[12] = second compound 0.316 µM, first compound 0.001 µM
[13] = second compound 0.316 µM, first compound 0.00316 µM
[14] = second compound 0.316 µM, first compound 0.01 µM
[15] = second compound 0.316 µM, first compound 0.0316 µM
[16] = second compound 1 µM, first compound 0.000316 µM
[17] = second compound 1 µM, first compound 0.001 µM
[18] = second compound 1 µM, first compound 0.00316 µM
[19] = second compound 1 µM, first compound 0.01 µM
[20] = second compound 1 µM, first compound 0.0316 µM
[21] = second compound 3.16 µM, first compound 0.000316 µM
[22] = second compound 3.16 µM, first compound 0.001 µM
[23] = second compound 3.16 µM, first compound 0.00316 µM
[24] = second compound 3.16 µM, first compound 0.01 µM
[25] = second compound 3.16 µM, first compound 0.0316 µM
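For viability, T/C in this document: viability read after seven days of compound exposure; 100% = DMSO vehicle-treated spheroids so lower means less viable.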

SMILES | IC50 (second compound 0.0316 µM) | IC50 (second compound 0.1 µM) | IC50 (second compound 0.316 µM) | IC50 (second compound 1 µM) | IC50 (second compound 3.16 µM) | viability, T/C [1] | viability, T/C [2] | viability, T/C [3] | viability, T/C [4] | viability, T/C [5] | viability, T/C [6] | viability, T/C [7] | viability, T/C [8] | viability, T/C [9] | viability, T/C [10] | viability, T/C [11] | viability, T/C [12] | viability, T/C [13] | viability, T/C [14] | viability, T/C [15] | also measured
CC(=O)Nc1cccc(-n2c(=O)n(C3CC3)c(=O)c3c(Nc4ccc(I)cc4F)n(C)c(=O)c(C)c32)c1 + C=CC(=O)N1CCN(c2nc(OCC3CCCN3C)nc3c2CCN(c2cccc4cccc(C)c24)C3)CC1CC#N | 0.749 nM | 0.668 nM | 0.67 nM | 0.483 nM | < 0.1 nM | 115% | 30.9% | 7.61% | 2.46% | 1.21% | 103% | 25.1% | 6.76% | 2.36% | 1.26% | 99% | 23.8% | 5.26% | 2.18% | 1.26% | viability, T/C (second compound 0.0316 µM, first compound 0.0001 µM): 98.2%; viability, T/C (second compound 0.1 µM, first compound 0.0001 µM): 88.8%; viability, T/C (second compound 0.316 µM, first compound 0.0001 µM): 103%; viability, T/C (second compound 1 µM, first compound 0.0001 µM): 105%; viability, T/C [16]: 74%; viability, T/C [17]: 8.66%; viability, T/C [18]: 2.88%; viability, T/C [19]: 1.12%; viability, T/C [20]: 0.75%; viability, T/C (second compound 3.16 µM, first compound 0.0001 µM): 0.32%; viability, T/C [21]: 0.18%; viability, T/C [22]: 0.13%; viability, T/C [23]: 0.12%; viability, T/C [24]: 0.11%; viability, T/C [25]: 0.19%
CN(C)C/C=C/C(=O)Nc1cc2c(Nc3ccc(F)c(Cl)c3)ncnc2cc1O[C@H]1CCOC1 + C=CC(=O)N1CCN(c2nc(OCC3CCCN3C)nc3c2CCN(c2cccc4cccc(C)c24)C3)CC1CC#N | > 100 nM | > 100 nM | > 100 nM | > 100 nM | < 0.316 nM | 98.6% | 106% | 100% | 103% | 118% | 109% | 95.5% | 94% | 117% | 110% | 102% | 102% | 103% | 109% | 111% | viability, T/C (second compound 0.0316 µM, first compound 0.1 µM): 112%; viability, T/C (second compound 0.1 µM, first compound 0.1 µM): 105%; viability, T/C (second compound 0.316 µM, first compound 0.1 µM): 105%; viability, T/C [16]: 94.6%; viability, T/C [17]: 94.5%; viability, T/C [18]: 112%; viability, T/C [19]: 106%; viability, T/C [20]: 98.7%; viability, T/C (second compound 1 µM, first compound 0.1 µM): 105%; viability, T/C [21]: 0.97%; viability, T/C [22]: 0.41%; viability, T/C [23]: 0.31%; viability, T/C [24]: 0.31%; viability, T/C [25]: 0.23%; viability, T/C (second compound 3.16 µM, first compound 0.1 µM): 0.38%
